Structures are written as SMILES.

T1 sequence (P08069 999-1274 limits assumed): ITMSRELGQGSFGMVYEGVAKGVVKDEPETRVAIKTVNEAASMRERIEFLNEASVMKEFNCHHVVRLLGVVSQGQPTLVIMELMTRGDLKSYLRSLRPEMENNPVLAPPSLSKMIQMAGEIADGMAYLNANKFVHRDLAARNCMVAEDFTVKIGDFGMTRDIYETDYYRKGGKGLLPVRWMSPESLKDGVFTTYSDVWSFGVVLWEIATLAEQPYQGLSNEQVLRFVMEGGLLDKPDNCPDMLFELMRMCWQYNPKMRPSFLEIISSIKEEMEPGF

The assay addresses T1, IGF-1R Ba/F3 (Homo sapiens, UniProt P08069).
T1 construct: fused on or other part: TEL- (or BCR-) IGF-1R in Ba/F3: the kinase part holds the site
Briefly: Ba/F3 Cell Viability Inhibition Assay (IGF-1R Ba/F3). The assay is classed as cell-based, murine. The note with it: Tel-TK transformed Ba/F3 cells, 48 hours, Britelite luminescence. The text has this: The IC50 of a drug may be determined constructing a dose-response curve and examining the effect of different concentrations of antagonist on reversing agonist activity. IC50 values may be calculated for a given antagonist by determining the concentration needed to inhibit half of the maximum biological response of the agonist. To calculate IC50 values, a series of dose-response data (e.g., drug concentrations x1, x2, . . . , xn and growth inhibition y1, y2, . . . , yn, the values of y are in the range of 0-1) is generated. IC50 values may be determined by a computer-aided system using the formula: y=D+((A−D)/(1+10^(x-log(IC50)B) • where A is the ratio of growth inhibition between lowest drug concentration and control; B is the slope of sigmoidal curvel; and D is the ratio of growth inhibition between highest drug concentration and control.
Ba/F3 is a murine IL-3-dependent pro-B lymphoma cell line. Parental Ba/F3 cells are used to generate a panel of sublines whose proliferation and survival is rendered IL-3-independent by stable transduction with individual tyrosine kinases activated by fusion with the amino-terminal portion of TEL (amino acid 1-375) or BCR. In order to generate Ba/F3 cell lines transformed by Tel-Tyrosine Kinase (TK) fusions, parental Ba/F3 cells are infected with a retrovirus harboring each TEL-fusion kinase and subjected to puromycin selection and IL-3 withdrawal to obtain IL-3-independent, transformed Ba/F3 cells.
Each transformed Ba/F3 cells are cultured in RPMI-1640 media (Gibco Cat #11875093, Carlsbad, Calif.) supplemented with 10% FBS (Hyclone Cat #SV30014.03, Logan, Utah), 4.5 g/L glucose (Sigma #G5400, St. Louis, Mo.), 1.5 g/L sodium bicarbonate (Biowhittaker #17-613E, Walkersville, Md.) and Pen/Strep (Gibco #10378-016, Carlsbad, Calif.). Cells are splitted twice weekly.
The potency of test compounds against various Tel-TK transformed Ba/F3 lines is determined as follows. Exponentially growing BaF3 Tel-TK cells are diluted in fresh medium to 75,000 cells/mL and seeded into 384-well plates (3750 cells/well) at 50 μL/well using a μFill liquid dispenser (BioTek, Winooski, Vt., USA). Duplicate plates are run for each cell line. Test and control compounds are serially diluted with DMSO and arrayed in a polypropylene 384-well plate. […] of compound is transferred into the assay plates using a pin-transfer device, and the plates are incubated at 37° C. (5% CO2) for 48 hours. 25 μL Britelite (Perkin Elmer) is added and luminescence is quantified using Analyst GT (Molecular Devices). Custom curve-fitting software is used to produce a logistic fit of percent cell viability as a function of the logarithm of inhibitor concentration. The IC50 is interpolated as the concentration of compound needed to reduce cell viability to 50% of a DMSO control. Parental Ba/F3 cells that are maintained and cultured in presence of IL-3 (1 ng/ml in final) are diluted in fresh medium containing IL-3 (1 ng/ml in final) to 75,000 cells/mL following the same procedure as described above.
A word on the IC50: it is the concentration at which inhibition is half-maximal. Low readings indicate greater potency, high ones weaker potency. As for `CCNC(=O)C(CC)N1CCC(c2cc(C)c(Nc3ncc(Cl)c(Nc4cc(C)[nH]n4)n3)cc2C)CC1` (stereo not shown) [Compound 190, 2-(4-(4-(5-chloro-4-(5-methyl-1H-pyrazol-3-ylamino)pyrimidin-2-ylamino)-2,5-dimethylphenyl)piperidin-1-yl)-N-ethylbutanamide], it took 7 nM to reach half-maximal inhibition (IC50).

`CNC(=O)CN1CCC(c2cc(C)c(Nc3ncc(Cl)c(Nc4cc(C)[nH]n4)n3)cc2Cl)CC1` [Compound 45, 2-(4-(2-chloro-4-(5-chloro-4-(5-methyl-1H-pyrazol-3-ylamino)pyrimidin-2-ylamino)-5-methylphenyl)piperidin-1-yl)-N-methylacetamide] had an IC50 of 18 nM.

For the compound `Cc1cc(Nc2nc(Nc3cc(C)c(C4CCCCN4)cc3C)ncc2Cl)n[nH]1` (stereo not shown) [Compound 14, 5-chloro-N2-(2,5-dimethyl-4-(piperidin-2-yl)phenyl)-N4-(5-methyl-1H-pyrazol-3-yl)pyrimidine-2,4-diamine], the IC50 worked out at 16 nM.

`Cc1cc(Nc2nc(Nc3cc(C(F)(F)F)c(C4CCN(C)CC4)cc3C)ncc2Cl)n[nH]1` [Compound 218, 5-chloro-N4-(5-methyl-1H-pyrazol-3-yl)-N2-(2-methyl-4-(1-methylpiperidin-4-yl)-5-(trifluoromethyl)phenyl)pyrimidine-2,4-diamine] showed an IC50 of 26 nM.

As to `Cc1cc(Nc2ncc(Cl)c(Nc3cc(C4CC4)[nH]n3)n2)c(F)cc1C1CCN(CC(N)=O)CC1` [Compound 34, 2-(4-(4-(5-chloro-4-(5-cyclopropyl-1H-pyrazol-3-ylamino)pyrimidin-2-ylamino)-5-fluoro-2-methylphenyl)piperidin-1-yl)acetamide], the IC50 is 49 nM.

`Cc1noc(CN2CCC(c3cc(F)c(Nc4ncc(Cl)c(Nc5cc(C)[nH]n5)n4)cc3C)CC2)n1` [Compound 293, 5-chloro-N2-(2-fluoro-5-methyl-4-(1-((3-methyl-1,2,4-oxadiazol-5-yl)methyl)piperidin-4-yl)phenyl)-N4-(5-methyl-1H-pyrazol-3-yl)pyrimidine-2,4-diamine]: 26 nM corresponded to half-maximal inhibition (IC50).

Compound `CNC(=O)CN1CCC(c2cc(C)c(Nc3ncc(C(F)(F)F)c(Nc4cc(C)[nH]n4)n3)cc2C)CC1` [Compound 203, 2-(4-(2,5-dimethyl-4-(4-(5-methyl-1H-pyrazol-3-ylamino)-5-(trifluoromethyl)pyrimidin-2-ylamino)phenyl)piperidin-1-yl)-N-methylacetamide] displayed an IC50 of 15 nM.

Compound `Cc1cc(Nc2nc(Nc3cc(C)c(C4CCN(C(=O)CN5C(C)(C)CCCC5(C)C)CC4)cc3C)ncc2Cl)n[nH]1` [Compound 104, 1-(4-(4-(5-chloro-4-(5-methyl-1H-pyrazol-3-ylamino)pyrimidin-2-ylamino)-2,5-dimethylphenyl)piperidin-1-yl)-2-(2,2,6,6-tetramethylpiperidin-1-yl)ethanone] showed an IC50 of 18 nM.

`Cc1cc(Nc2nc(Nc3cc(C)c(C4CCN(CCS(C)(=O)=O)CC4)cc3C)ncc2Cl)n[nH]1` [Compound 56, 5-chloro-N2-(2,5-dimethyl-4-(1-(2-(methylsulfonyl)ethyl)piperidin-4-yl)phenyl)-N4-(5-methyl-1H-pyrazol-3-yl)pyrimidine-2,4-diamine]: half-maximal inhibition (IC50) required 6 nM.

In the case of `COc1cc(Nc2ncc(Cl)c(Nc3cc(C)[nH]n3)n2)c(C)cc1C1CCN(C(=O)CN(C)C)CC1` [Compound 76, 1-(4-(4-(5-chloro-4-(5-methyl-1H-pyrazol-3-ylamino)pyrimidin-2-ylamino)-2-methoxy-5-methylphenyl)piperidin-1-yl)-2-(dimethylamino)ethanone], the IC50 is 9 nM.

For the compound `Cc1cc(Nc2nc(Nc3cc(C)c(C4CCN(C(=O)c5nc(C(C)C)no5)CC4)cc3F)ncc2Cl)n[nH]1` [Compound 265, (4-(4-(5-Chloro-4-(5-methyl-1H-pyrazol-3-ylamino)pyrimidin-2-ylamino)-5-fluoro-2-methylphenyl)piperidin-1-yl)(3-isopropyl-1,2,4-oxadiazol-5-yl)methanone], the IC50 turned out to be 91 nM. This IC50 lies about 10-fold higher than the previous one.

With `Cc1cc(Nc2nc(Nc3cc(C)c(C4CCN(C(=O)CCCN5CCCC5)CC4)cc3C)ncc2Cl)n[nH]1` [Compound 227, 1-(4-(4-(5-chloro-4-(5-methyl-1H-pyrazol-3-ylamino)pyrimidin-2-ylamino)-2,5-dimethylphenyl)piperidin-1-yl)-4-(pyrrolidin-1-yl)butan-1-one], the half-inhibitory concentration (IC50) turned out to be 123 nM.

In turn, `Cc1cc(Nc2nc(Nc3cc(C)c(C4CCNCC4)cc3F)ncc2C(F)(F)F)n[nH]1` [Compound 4, N2-(2-fluoro-5-methyl-4-(piperidin-4-yl)phenyl)-N4-(5-methyl-1H-pyrazol-3-yl)-5-(trifluoromethyl)pyrimidine-2,4-diamine] yielded an IC50 of 150 nM.

`Cc1cc(Nc2nc(Nc3cc(C)c(C4CCN(CCCS(=O)(=O)N5CCC5)CC4)cc3C)ncc2Cl)n[nH]1` [Compound 214, N^2-(4-(1-(3-(azetidin-1-ylsulfonyl)propyl)piperidin-4-yl)-2,5-dimethylphenyl)-5-chloro-N^4-(5-methyl-1H-pyrazol-3-yl)pyrimidine-2,4-diamine] showed an IC50 of 40 nM.

The compound `Cc1noc(CN2CCC(c3cc(C)c(Nc4ncc(Cl)c(Nc5cc(C)[nH]n5)n4)cc3C)CC2)n1` [Compound 302, 5-chloro-N2-(2,5-dimethyl-4-(1-((3-methyl-1,2,4-oxadiazol-5-yl)methyl)piperidin-4-yl)phenyl)-N4-(5-methyl-1H-pyrazol-3-yl)pyrimidine-2,4-diamine] returned a concentration for half-maximal inhibition (IC50) of 6 nM.

As to `Cc1cc(Nc2nc(Nc3cc(C)c(C4CCN(C5CCN(S(C)(=O)=O)CC5)CC4)cc3F)ncc2Cl)n[nH]1` [Compound 278, 5-chloro-N2-(2-fluoro-5-methyl-4-(1′-(methylsulfonyl)-1,4′-bipiperidin-4-yl)phenyl)-N4-(5-methyl-1H-pyrazol-3-yl)pyrimidine-2,4-diamine], the midpoint of inhibition, the IC50, lay at 9 nM.

In turn, `Cc1cc(Nc2nc(Nc3cc(C)c(C4CCN(CC(O)C(F)(F)F)CC4)cc3C)ncc2Cl)n[nH]1` (stereo not shown) [Compound 29, 3-(4-(4-(5-chloro-4-(5-methyl-1H-pyrazol-3-ylamino)pyrimidin-2-ylamino)-2,5-dimethylphenyl)piperidin-1-yl)-1,1,1-trifluoropropan-2-ol] registered an IC50 of 23 nM.

Consider `Cc1cc(Nc2nc(Nc3cc(C)c(C4CCN(C)CC4)cc3F)ncc2Cl)no1` [Compound 159, 5-chloro-N2-(2-fluoro-5-methyl-4-(1-methylpiperidin-4-yl)phenyl)-N4-(5-methylisoxazol-3-yl)pyrimidine-2,4-diamine], for which the IC50 stood at 73 nM.

As to `Cc1cc(Nc2nc(Nc3cc(C)c(C4CCCCN4CC(N)=O)cc3C)ncc2Cl)n[nH]1` (stereo not shown) [Compound 181, 2-(2-(4-(5-Chloro-4-(5-methyl-1H-pyrazol-3-ylamino)pyrimidin-2-ylamino)-2,5-dimethylphenyl)piperidin-1-yl)acetamide], the IC50 amounted to 24 nM. Against the preceding compound, the IC50 is about 3-fold lower.

Turning to `Cc1cc(Nc2nc(Nc3cc(C)c(C4CCN(CCC(=O)NC5CC5)CC4)cc3F)ncc2Cl)n[nH]1` [Compound 247, 3-(4-(4-(5-chloro-4-(5-methyl-1H-pyrazol-3-ylamino)pyrimidin-2-ylamino)-5-fluoro-2-methylphenyl)piperidin-1-yl)-N-cyclopropylpropanamide], the IC50 came out at 62 nM.

Compound `Cc1cc(Nc2nc(Nc3cc(C)c(C4CCN(C(=O)[C@H]5CCCN5C(C)C)CC4)cc3F)ncc2Cl)n[nH]1` [Compound 135, (R)-(4-(4-(5-chloro-4-(5-methyl-1H-pyrazol-3-ylamino)pyrimidin-2-ylamino)-5-fluoro-2-methylphenyl)piperidin-1-yl)(1-isopropylpyrrolidin-2-yl)methanone] showed an IC50 of 48 nM.

`Cc1cc(Nc2ncc(Cl)c(NC3CCCCNC3=O)n2)c(F)cc1C1CCN(C)CC1` (stereo not shown) [Compound 9, 3-(5-chloro-2-(2-fluoro-5-methyl-4-(1-methylpiperidin-4-yl)phenylamino)pyrimidin-4-ylamino)azepan-2-one] came in with a half-maximal inhibitory concentration (IC50) of 87 nM.

The values above are taken from patent US8859574B2 (IRM LLC, priority 2008, dated 2014).
